Measurements from ChEMBL document CHEMBL1121864, “Diterpenoid sweeteners. Synthesis and sensory evaluation of stevioside analogues nondegradable to steviol” (J Med Chem, 1981).

Test: Acute toxicity in mice after oral administration
Details: mouse, in vivo

## C=C1C[C@@]23CC[C@H]4[C@@](C)(CCC[C@@]4(C)C(=O)O[C@@H]4O[C@H](CO)[C@@H](O)[C@H](O)[C@H]4O)[C@@H]2CC[C@]1(O[C@@H]1O[C@H](CO)[C@@H](O)[C@H](O)[C@H]1O[C@@H]1O[C@H](CO)[C@@H](O)[C@H](O)[C@H]1O)C3 [STEVIOSIDE]
  LD50: > 8200 mg/kg
read-out: LD50
  LD50: > 15000 mg/kg
